Reference: ChEMBL document CHEMBL1143452, “Synthesis and biological evaluation of 1-amino-1,1-bisphosphonates derived from fatty acids against Trypanosoma cruzi targeting farnesyl pyrophosphate synthase” (Bioorg Med Chem Lett, 2005)

Columns and labels:
Trypanosoma cruzi [1] = assay: Inhibitory concentration against growth of Trypanosoma cruzi amastigotes; type: functional, organism-based
Trypanosoma cruzi [2] = assay: Inhibitory concentration against growth of Trypanosoma cruzi epimastigotes; type: functional, organism-based

Compound	IC50 (Trypanosoma cruzi [1])	IC50 (Trypanosoma cruzi [2])
CCCCCCC(N)(P(=O)(O)O)P(=O)(O)O	72 µM	> 100 µM
CC(N)(P(=O)(O)O)P(=O)(O)O	> 100 µM	> 100 µM
CCCCCC(N)(P(=O)(O)O)P(=O)(O)O	77 µM	> 100 µM
CCCCC(N)(P(=O)(O)O)P(=O)(O)O	> 85 µM	> 100 µM
CCCC(N)(P(=O)(O)O)P(=O)(O)O	> 85 µM	> 100 µM
CCC(N)(P(=O)(O)O)P(=O)(O)O	> 85 µM	> 100 µM
